Source: patent publication US5420145A, “Carboxylic acid derivative” (Shudo; Koichi, priority 1993, dated 1995)
Read-outs that look alike come from different tables or passages of the source.

Tested on: promyelocytic leukemia cell-line HL-60
Assay: Differentiation Inducing Activity on HL-60 (differentiation to granulocyte; morphological observation of nucleus and NBT reduction)
Assay type: cell-based
Conditions: Homo sapiens
Description: The activities of the compounds of the above-described examples on differentiation were evaluated using promyelocytic leukemia cell-line HL-60 according to the method described in Japanese Patent Unexamined Publication No. 61-76440. The differentiation to granulocyte was evaluated by morphological observation of nucleus and measurement of ability to reduce nitroblue-tetrazolium (NBT). These are well known procedures providing adequate results in the evaluation of the cell differentiation-inducing activity of retinoids. Retinoic acid was used as the reference compound, and the concentrations which induced differentiation in the half of the cells were calculated.

[1] = HL-60 cells, differentiation to granulocyte, nucleus morphology and nitroblue-tetrazolium (NBT) reduction, read-out: ED50 (concentration which induced differentiation in the half of the cells)

**Q.** Which EC50 [1] does the source give for `CC1(C)CCC(C)(C)c2cc(NC(=O)c3ccc(C(=O)O)nc3)ccc21` [Example 1, 5-(5,6,7,8-Tetrahydro-5,5,8,8-tetramethyl-2-naphthalenyl-carbamoyl)pyridine-2-carboxylic acid] here?
**A.** 40 nM

**Q.** For `CC1(C)CCC(C)(C)c2cc(NC(=O)c3ccc(C(=O)O)cn3)ccc21` [Example 2, 6-(5,6,7,8-Tetrahydro-5,5,8,8-tetramethyl-2naphthalenylcarbamoyl) pyridine-3-carboxylic acid], which EC50 [1] is on record?
**A.** 0.22 nM

**Q.** For `CC1(C)CCC(C)(C)c2cc(NC(=O)c3ccc(C(=O)O)cc3O)ccc21` [Example 3, 3-Hydroxy-4-(5,6,7,8-tetrahydro-5,5,8,8-tetramethyl-2-naphthalenylcarbamoyl)benzoic acid], which EC50 [1] is on record?
**A.** 0.41 nM

**Q.** How did the EC50 [1] turn out when `CC1(C)CCC(C)(C)c2cc(C(=O)Nc3ccc(C(=O)O)cc3O)ccc21` [Example 4, 3-Hydroxy-4-(5,6,7,8-tetrahydro-5,5,8,8-tetramethyl-2-naphthalenylcarboxamide)benzoic acid] was run?
**A.** 6.5 nM

**Q.** `CC(C)c1ccc(NC(=O)c2ccc(C(=O)O)cn2)cc1C(C)C` [Example 5, 6-(3,4-Di-isopropylphenylcarbamoyl)pyridine-3-carboxylic acid] was tested. Which EC50 [1] did it give?
**A.** 25 nM

**Q.** `CC1=C(/C=C/C(C)=C/C=C/C(C)=C/C(=O)O)C(C)(C)CCC1` [Retinoic Acid, Retinoic acid, reference compound] was tested. Which EC50 (HL-60, read-out: ED50 (concentration which induced differentiation in the half of the cells)) did it give?
**A.** 2.4 nM
